# pIC50: −log10 of the molar value.
# Biological target: T1, human MRGPR X4 (Homo sapiens, UniProt Q96LA9)
# T1 construct: expressed in transfected cells
# Assay: MRGPR X4 antagonist activity, IP-One Gq HTRF assay in stably transfected HEK cells
# Type: cell-based
# Conditions: not given
# Procedure: HEK cells stably transfected to express human MIRGPR X4 were maintained in an incubator at 37° C. with 5% CO2 and grown in DMEM media with 10% fetal bovine serum (FBS) and […] each of sodium pyruvate, Glutamax, penicillin/streptomycin, and Geneticin. HEK cells stably transfected to express mouse MRGPR A1 were maintained in the same incubator and grown in DMEM media with 10% FBS, 1% each of sodium pyruvate, Glutamax, penicillin/streptomycin, Geneticin, and 2.2 mg/mL Hygromycin.
# Cells were plated in a 384-well assay plate at 20,000 cells per well in 12 μL of Opti-MEM and kept in an incubator overnight. On the day of the assay, compounds solubilized at 10 mM in DMSO were added as a 10-point curve (10 uM final top concentration with 1:3 serial dilutions) using a Tecan D300E digital dispenser. Agonists were diluted in assay buffer (final concentrations of 5.7 mM Tris-HCl, 43 mM NaCl, 50 mM LiCl, pH=8) and 2 μL of the appropriate agonist are added to each well. Final concentrations of agonists were 10 μM bilirubin, 20 μM deoxycholic acid, or 100 μM conjugated bilirubin (obtained from Lee Biosolutions, catalog #910-12). Final concentrations of DMSO were kept consistent across the plate. Plates were incubated in the dark for 1 h at 37° C. and then for 30 minutes at room temperature. IP-1 standards and HTRF detection reagents were added according to the IP-One—Gq Kit purchased from Cisbio (part number 62IPAPEJ) and incubated in the dark for 1 h at room temperature. The plate was read on a Molecular Devices SpectraMax iD5 plate reader. The HTRF ratio was calculated from the raw data and graphed using GraphPad Prism to calculate an IC50 value for each compound.
# T1 sequence (Q96LA9 whole entry): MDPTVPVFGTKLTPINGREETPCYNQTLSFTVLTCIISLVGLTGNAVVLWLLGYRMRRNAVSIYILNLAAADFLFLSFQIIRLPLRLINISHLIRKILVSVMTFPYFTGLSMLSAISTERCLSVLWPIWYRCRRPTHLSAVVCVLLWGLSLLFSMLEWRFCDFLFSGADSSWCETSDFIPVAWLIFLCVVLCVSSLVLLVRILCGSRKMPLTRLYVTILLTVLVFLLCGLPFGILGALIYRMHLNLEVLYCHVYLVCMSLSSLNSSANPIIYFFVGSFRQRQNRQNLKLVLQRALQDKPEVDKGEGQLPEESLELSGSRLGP
row,Compound,pIC50
1,O=C(NCCc1cccc(Cl)c1)c1nn(Cc2ccc(Cl)cc2)c2ccccc12 [Compound 339],6.00 to 6.30
2,O=C(NCCc1nnc2ccccn12)c1nn(CCc2ccc(C(F)(F)F)cc2)c2ccccc12 [Compound 441],5.60 to 6.00
3,Cc1ccc(Cn2nc(C(=O)NCCc3nc4c(s3)CCCC4)c3c(F)cccc32)cc1 [Compound 69],6.30 to 7.00
4,N#Cc1ccc(Cn2cc(C(=O)NCCc3ccc(Cl)c(F)c3)c3ccccc32)cc1 [Compound 188],6.00 to 6.30
5,O=C(NCCc1cnccn1)c1nn(Cc2ccc(Cl)cc2)c2ccccc12 [Compound 348],5.60 to 6.00
6,COc1ccc2nc(Cn3nc(C(=O)NCCc4nnc5ccccn45)c4ccccc43)[nH]c2c1 [Compound 519],6.00 to 6.30
7,O=C(NCCc1nnc2ccccn12)c1nn(Cc2cc3c(cc2Cl)OCO3)c2ccc(F)cc12 [Compound 536],> 7.00
8,O=C(NCc1ccnc2[nH]ccc12)c1nn(Cc2ccc(Cl)cc2)c2ccccc12 [Compound 386],< 5.60
9,CCc1ccc(Cn2nc(C(=O)NCCc3nnc4ccccn34)c3ccccc32)cc1 [Compound 447],6.30 to 7.00
10,COc1ccc2c(C(=O)NCCc3nnc4ccccn34)nn(Cc3ccc(Cl)cc3)c2c1 [Compound 563],> 7.00
11,O=C(NCCc1nnc2ccccn12)c1nn(Cc2cccc3ccccc23)c2ccccc12 [Compound 474],6.30 to 7.00
12,Cc1ccc(Cn2nc(C(=O)NCCc3nnc4n3CCCCC4)c3cccc(F)c32)cc1 [Compound 116],5.60 to 6.00
13,Cc1ccc(CCNC(=O)c2nn(Cc3ccc(Cl)cc3)c3ccccc23)cn1 [Compound 21],> 7.00
14,O=C(Nc1cccnc1)c1nn(Cc2ccc(Cl)cc2)c2ccccc12 [Compound 130],< 5.60
15,O=C(CNC(=O)c1nn(Cc2ccc(Cl)cc2)c2ccccc12)NCC(F)F [Compound 418],< 5.60
16,O=C(NCCc1nnc2ccccn12)c1nn(Cc2nc(C3CCC3)no2)c2ccccc12 [Compound 511],6.30 to 7.00
17,O=C(NCCc1cncnc1)c1cn(Cc2ccc(Cl)cc2)c2ccccc12 [Compound 215],5.60 to 6.00
18,O=C(NCCc1ccncn1)c1nn(Cc2ccc(Cl)cc2)c2ccccc12 [Compound 121],5.60 to 6.00
19,O=C(NCCc1nnc2ccccn12)c1nn(Cc2ccc(Cl)cc2)c2cc(Cl)ccc12 [Compound 562],> 7.00
20,Cc1ccc2c(C(=O)NCCc3nnc4ccccn34)nn(Cc3ccc(Cl)cc3)c2c1 [Compound 549],6.30 to 7.00
21,Cn1c(CCNC(=O)c2nn(Cc3ccc(Cl)cc3)c3ccccc23)nc2ccccc21 [Compound 397],6.30 to 7.00
22,CC(C)(CNC(=O)c1cn(Cc2cccc(F)c2)c2ccccc12)c1cccnc1 [Compound 213],5.60 to 6.00
23,O=C(NCc1cn2cccnc2n1)c1nn(Cc2ccc(Cl)cc2)c2ccccc12 [Compound 368],6.30 to 7.00
24,O=C(NCCNC(=O)c1nn(Cc2ccc(Cl)cc2)c2ccccc12)c1ccccc1 [Compound 400],6.30 to 7.00
25,O=C(NCCN1CCCc2ccccc21)c1nn(Cc2ccc(Cl)cc2)c2ccccc12 [Compound 373],6.00 to 6.30
26,"CC(C)c1cn(CCNC(=O)c2nn(Cc3ccc(Cl)cc3)c3ccccc23)nn1 [Compound 137, 1-(4-chlorobenzyl)-N-(2-(4-isopropyl-1H-1,2,3-triazol-1-yl)ethyl)-1H-indazole-3-carboxamide]",> 7.00
27,O=C(NCCc1nnc2ccccn12)c1nn(Cc2ccc(Cl)cc2)c2ccc(I)cc12 [Compound 552],> 7.00

row,Compound,pIC50
1,Cn1ncc2cccc(Cn3nc(C(=O)NCCc4nnc5ccccn45)c4ccccc43)c21 [Compound 460],6.00 to 6.30
2,Cc1ccc(Cn2nc(C(=O)NCCc3ccco3)c3ccccc32)cc1 [Compound 122],5.60 to 6.00
3,CS(=O)(=O)c1ccc(CNC(=O)c2nn(Cc3ccc(Cl)cc3)c3ccccc23)cc1 [Compound 378],< 5.60
4,O=C(Cn1nc(C(=O)NCCc2nnc3ccccn23)c2ccccc21)c1ccc(F)c(F)c1 [Compound 517],5.60 to 6.00
5,Cc1ccc(Cn2nc(C(=O)NCCc3nnc4ccccn34)c3ccccc32)cc1 [Compound 528],> 7.00
6,Cc1ccc(Cn2nc(C(=O)NCCc3nc(C)c(C)s3)c3ccccc32)cc1 [Compound 53],6.30 to 7.00
7,Cn1ccc(CNC(=O)c2nn(Cc3ccc(Cl)cc3)c3ccccc23)n1 [Compound 354],< 5.60
8,O=C(NCCc1nnc2ccccn12)c1nn(Cc2ccc(Cl)cc2)c2c(Br)cccc12 [Compound 541],> 7.00
9,O=C(NCCC1CCS(=O)(=O)CC1)c1nn(Cc2ccc(Cl)cc2)c2ccccc12 [Compound 385],< 5.60
10,O=C(NCCc1nnc2ccccn12)c1nn(Cc2cc(F)cc(C(F)(F)F)c2)c2ccccc12 [Compound 509],6.30 to 7.00
11,Cc1ccc(Cn2nc(C(=O)NCCc3ccncc3)c3ccccc32)cc1 [Compound 78],6.00 to 6.30
12,Cc1ccc(Cn2nc(C(=O)NCCc3nc4c(s3)COCC4)c3ccccc32)cc1 [Compound 65],6.30 to 7.00
13,O=C(NCCc1ccc(F)cc1)c1cn(Cc2ccc(Cl)cc2)c2ccccc12 [Compound 179],6.30 to 7.00
14,CC(C)c1ccc(Cn2nc(C(=O)NCCc3ccccn3)c3ccccc32)cc1 [Compound 91],6.00 to 6.30
15,Cc1ccc(Cn2cc(C(=O)NCCc3nc(C)cs3)c3ccccc32)cc1 [Compound 159],6.30 to 7.00
16,O=C(NCCc1nnc2ccccn12)c1nn(CCCC2CCCC2)c2ccccc12 [Compound 487],6.30 to 7.00
17,Cn1nc(CNC(=O)c2nn(Cc3ccc(Cl)cc3)c3ccccc23)c2cccnc21 [Compound 389],< 5.60
18,COc1ccc(CCNC(=O)c2nn(Cc3ccc(Cl)cc3)c3ccccc23)nc1 [Compound 61],6.30 to 7.00
19,Cc1cccc(CCn2nc(C(=O)NCCc3nnc4ccccn34)c3ccccc32)c1 [Compound 523],5.60 to 6.00
20,Cc1ccc(CCNC(=O)c2nn(Cc3ccc(C(F)(F)F)cc3)c3ccccc23)cn1 [Compound 49],6.30 to 7.00
21,O=C(NCCc1nnc2ccccn12)c1nn(Cc2cccc3c2CCO3)c2ccccc12 [Compound 491],6.30 to 7.00
22,Cc1nc(CCNC(=O)c2nn(Cc3ccc(Cl)cc3)c3ccccc23)sc1C [Compound 34],6.30 to 7.00
23,O=C(NCc1ccc2nonc2c1)c1nn(Cc2ccc(Cl)cc2)c2ccccc12 [Compound 427],< 5.60
24,O=C(NCCc1nnc2ccccn12)c1nn(Cc2ccc(-n3cccn3)cc2)c2ccccc12 [Compound 461],5.60 to 6.00
25,CC(C)c1ccc(Cn2nc(C(=O)O)c3ccccc32)cc1 [Compound 323],5.60 to 6.00
26,Cc1[nH]c2ccccc2c1CCNC(=O)c1nn(Cc2ccc(Cl)cc2)c2ccccc12 [Compound 340],< 5.60
27,O=C(NCc1cnc2ccccc2c1)c1nn(Cc2ccc(Cl)cc2)c2ccccc12 [Compound 370],< 5.60

# Same assay, conditions: versus 20 μM deoxycholic acid agonist; HEK cells expressing human MRGPR X4; read-out: MRGPRX4 Antagonist Activity
row,Compound,pIC50
1,O=C(NCCS(=O)(=O)c1ccccc1)c1nn(Cc2ccc(Cl)cc2)c2ccccc12 [Compound 407],5.60 to 6.00
2,O=C(NS(=O)(=O)c1cccc(OC(F)(F)F)c1)c1nn(Cc2ccc(OC(F)F)cc2)c2ccccc12 [Compound 281],5.60 to 6.00
3,"Cc1ccc(S(=O)(=O)NC(=O)c2nn(Cc3ccc(OC(F)F)cc3)c3ccccc23)cc1 [Compound 309, 1-(4-(difluoromethoxy)benzyl)-N-tosyl-1H-indazole-3-carboxamide]",5.60 to 6.00
4,O=C(Cn1nc(C(=O)NCCc2nnc3ccccn23)c2ccccc21)NCC1CCCCC1 [Compound 472],< 5.60
5,Cc1nc(S(=O)(=O)NC(=O)c2nn(Cc3ccc(Cl)cc3)c3ccccc23)sc1C [Compound 271],5.60 to 6.00
6,O=C(NS(=O)(=O)c1ccccc1OC(F)(F)F)c1nn(Cc2ccc(OC(F)F)cc2)c2ccccc12 [Compound 286],5.60 to 6.00
7,Cc1cc(S(=O)(=O)NC(=O)c2nn(Cc3ccc(OC(F)F)cc3)c3ccccc23)ccc1Cl [Compound 303],< 5.60
8,Cc1nccn1-c1ccc(Cn2nc(C(=O)NCCc3nnc4ccccn34)c3ccccc32)cc1 [Compound 450],< 5.60
9,O=C(NS(=O)(=O)Cc1cccnc1)c1nn(Cc2ccc(Cl)cc2)c2ccccc12 [Compound 310],< 5.60
10,Cc1cccc(S(=O)(=O)NC(=O)c2nn(Cc3ccc(C(F)(F)F)cc3Cl)c3ccccc23)c1 [Compound 306],< 5.60
11,Cc1cccc(NC(=O)CS(=O)(=O)c2cn(CCN3CCC(F)(F)C3)c3ccccc23)c1 [Compound 254],5.60 to 6.00
12,O=C(Cn1nc(C(=O)NCCc2nnc3ccccn23)c2ccccc21)c1cc2ccccc2o1 [Compound 503],6.00 to 6.30
13,Cc1ccc(CS(=O)(=O)NC(=O)c2nn(Cc3ccc(Cl)cc3)c3ccccc23)cc1 [Compound 264],6.00 to 6.30
14,O=C(NCCc1nnc2ccccn12)c1nn(CCc2ccc(Cl)cc2)c2ccccc12 [Compound 442],< 5.60
15,CS(=O)(=O)NCCNC(=O)c1nn(Cc2ccc(Cl)cc2)c2ccccc12 [Compound 384],< 5.60
16,O=C(NCCOCc1ccccc1)c1nn(Cc2ccc(Cl)cc2)c2ccccc12 [Compound 337],< 5.60
17,O=C(NCCOc1ccncc1)c1nn(Cc2ccc(Cl)cc2)c2ccccc12 [Compound 406],5.60 to 6.00

# — patent US20240254089A1, “MODULATORS OF MAS-RELATED G-PROTEIN RECEPTOR X4 AND RELATED PRODUCTS AND METHODS” (ESCIENT PHARMACEUTICALS, INC., priority 2020, published 2024)
